# Test results reported in ChEMBL document CHEMBL1201862, “PubChem BioAssay data set” (2004).
#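 Cells were grown in 96-well plates and exposed to each compound for 48 hours at five concentrations; endpoints were interpolated linearly between bracketing concentrations, or set to the highest concentration if not reached. GI50: concentration for 50% inhibition of growth.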 Activity calls are given as the source filed them. Cut-off read from the data, not from the text of the source: active = GI50 up to about 1.1 µM and inactive = higher.
# Experiments:
# Test in all cases: DTP human tumour cell line panel, 48 h
# MOLT-4 = tested on: MOLT-4
# HCT-15 = tested on: HCT-15
# OVCAR-5 = tested on: OVCAR-5
# NCI-H226 = tested on: NCI-H226
# NCI-H460 = tested on: NCI-H460
# A549 = tested on: A549
# HOP-62 = tested on: HOP-62
# NCI/ADR-RES = tested on: NCI/ADR-RES
# DU-145 = tested on: DU-145
# SK-MEL-2 = tested on: SK-MEL-2
# HOP-92 = tested on: HOP-92
# Malme-3M = tested on: Malme-3M
# RPMI-8226 = tested on: RPMI-8226
# SF-268 = tested on: SF-268
# 786-0 = tested on: 786-0
# SNB-19 = tested on: SNB-19
# Hs-578T = tested on: Hs-578T
# HCT-116 = tested on: HCT-116
# SNB-75 = tested on: SNB-75
# SK-MEL-5 = tested on: SK-MEL-5
# OVCAR-4 = tested on: OVCAR-4
# UACC-62 = tested on: UACC-62
# MCF7 = tested on: MCF7
# T47D = tested on: T47D
# OVCAR-8 = tested on: OVCAR-8
# IGROV-1 = tested on: IGROV-1
# U-251 = tested on: U-251
# RXF 393 = tested on: RXF 393
# UACC-257 = tested on: UACC-257
# CCRF-CEM = tested on: CCRF-CEM
# KM12 = tested on: KM12
# OVCAR-3 = tested on: OVCAR-3
# HCC 2998 = tested on: HCC 2998
# SW-620 = tested on: SW-620
# ACHN = tested on: ACHN
# HT-29 = tested on: HT-29
# COLO 205 = tested on: COLO 205
# SF-295 = tested on: SF-295
# TK-10 = tested on: TK-10
# PC-3 = tested on: PC-3
# NCI-H23 = tested on: NCI-H23
# SK-OV-3 = tested on: SK-OV-3
# LOX IMVI = tested on: LOX IMVI
# SN12C = tested on: SN12C
# UO-31 = tested on: UO-31
# BT-549 = tested on: BT-549
# MDA-MB-435 = tested on: MDA-MB-435
# MDA-N = tested on: MDA-N
# EKVX = tested on: EKVX
# SF-539 = tested on: SF-539
# M14 = tested on: M14
# K562 = tested on: K562
# CAKI-1 = tested on: CAKI-1
# MDA-MB-231 = tested on: MDA-MB-231
# A498 = tested on: A498
# SK-MEL-28 = tested on: SK-MEL-28
# NCI-H522 = tested on: NCI-H522
# HL-60 = tested on: HL-60
structure (smiles),measurement,setting,value
Oc1[nH]c(Nc2cc(Cl)cc(Cl)c2)nc2ncnc1-2,GI50,MOLT-4,> 75 µM (inactive)
same,GI50,HCT-15,> 75 µM
same,GI50,OVCAR-5,> 75 µM (inactive)
same,GI50,NCI-H226,> 75 µM (inactive)
same,GI50,NCI-H460,> 75 µM (inactive)
same,GI50,A549,> 75 µM (inactive)
same,GI50,HOP-62,> 75 µM (inactive)
same,GI50,NCI/ADR-RES,> 75 µM (inactive)
same,GI50,DU-145,> 75 µM (inactive)
same,GI50,SK-MEL-2,> 75 µM (inactive)
same,GI50,HOP-92,> 75 µM (inactive)
same,GI50,Malme-3M,> 75 µM (inactive)
same,GI50,RPMI-8226,> 75 µM (inactive)
same,GI50,SF-268,> 75 µM (inactive)
same,GI50,786-0,> 75 µM (inactive)
same,GI50,SNB-19,> 75 µM (inactive)
same,GI50,Hs-578T,17.9 µM (inactive)
same,GI50,HCT-116,> 75 µM (inactive)
same,GI50,SNB-75,> 75 µM (inactive)
same,GI50,SK-MEL-5,> 75 µM (inactive)
same,GI50,OVCAR-4,> 75 µM (inactive)
same,GI50,UACC-62,> 75 µM (inactive)
same,GI50,MCF7,> 75 µM (inactive)
same,GI50,T47D,> 75 µM (inactive)
same,GI50,OVCAR-8,> 75 µM (inactive)
same,GI50,IGROV-1,> 75 µM (inactive)
same,GI50,U-251,> 75 µM (inactive)
same,GI50,RXF 393,> 75 µM (inactive)
same,GI50,UACC-257,> 75 µM (inactive)
same,GI50,CCRF-CEM,> 75 µM (inactive)
same,GI50,KM12,> 75 µM (inactive)
same,GI50,OVCAR-3,> 75 µM (inactive)
same,GI50,HCC 2998,> 75 µM (inactive)
same,GI50,SW-620,> 75 µM (inactive)
same,GI50,ACHN,> 75 µM (inactive)
same,GI50,HT-29,> 75 µM (inactive)
same,GI50,COLO 205,> 75 µM (inactive)
same,GI50,SF-295,> 75 µM (inactive)
same,GI50,TK-10,> 75 µM (inactive)
same,GI50,PC-3,> 75 µM (inactive)
same,GI50,NCI-H23,> 75 µM (inactive)
same,GI50,SK-OV-3,> 75 µM (inactive)
same,GI50,LOX IMVI,> 75 µM (inactive)
same,GI50,SN12C,> 75 µM (inactive)
same,GI50,UO-31,> 75 µM (inactive)
same,GI50,BT-549,> 75 µM (inactive)
same,GI50,MDA-MB-435,> 75 µM (inactive)
same,GI50,MDA-N,> 75 µM (inactive)
same,GI50,EKVX,> 75 µM (inactive)
same,GI50,SF-539,> 75 µM (inactive)
same,GI50,M14,> 75 µM (inactive)
same,GI50,K562,> 75 µM (inactive)
same,GI50,CAKI-1,> 75 µM (inactive)
same,GI50,MDA-MB-231,> 75 µM (inactive)
N#CC(Cc1ccccc1Br)N(CCC1=CCCCC1)C(c1ccccc1)c1ccccc1 (configuration not stated),GI50,MOLT-4,72.3 µM (inactive)
same,GI50,HCT-15,50.2 µM
same,GI50,OVCAR-5,> 100 µM (inactive)
same,GI50,NCI-H460,57.3 µM (inactive)
same,GI50,A549,93.3 µM (inactive)
same,GI50,HOP-62,> 100 µM (inactive)
same,GI50,NCI/ADR-RES,> 100 µM (inactive)
same,GI50,DU-145,> 100 µM (inactive)
same,GI50,SK-MEL-2,> 100 µM (inactive)
same,GI50,HOP-92,29.7 µM (inactive)
same,GI50,Malme-3M,> 100 µM (inactive)
same,GI50,RPMI-8226,31.7 µM (inactive)
same,GI50,A498,> 100 µM (inactive)
same,GI50,SK-MEL-28,> 100 µM (inactive)
same,GI50,SF-268,> 100 µM (inactive)
same,GI50,786-0,> 100 µM (inactive)
same,GI50,SNB-19,> 100 µM (inactive)
same,GI50,Hs-578T,> 100 µM (inactive)
same,GI50,HCT-116,32.8 µM (inactive)
same,GI50,SNB-75,> 100 µM (inactive)
same,GI50,SK-MEL-5,46 µM (inactive)
same,GI50,OVCAR-4,94 µM (inactive)
same,GI50,UACC-62,97.1 µM (inactive)
same,GI50,MCF7,52.4 µM (inactive)
same,GI50,T47D,38.3 µM (inactive)
same,GI50,OVCAR-8,76 µM (inactive)
same,GI50,IGROV-1,52.1 µM (inactive)
same,GI50,NCI-H522,25.9 µM (inactive)
same,GI50,U-251,83.8 µM (inactive)
same,GI50,RXF 393,71.6 µM (inactive)
same,GI50,UACC-257,61.8 µM (inactive)
same,GI50,KM12,64.9 µM (inactive)
same,GI50,OVCAR-3,75.5 µM (inactive)
same,GI50,HCC 2998,18.6 µM (inactive)
same,GI50,SW-620,73.8 µM (inactive)
same,GI50,ACHN,> 100 µM (inactive)
same,GI50,HT-29,32.9 µM (inactive)
same,GI50,COLO 205,50.8 µM (inactive)
same,GI50,SF-295,58.7 µM (inactive)
same,GI50,TK-10,> 100 µM (inactive)
same,GI50,PC-3,> 100 µM (inactive)
same,GI50,NCI-H23,27.8 µM (inactive)
same,GI50,SK-OV-3,> 100 µM (inactive)
same,GI50,UO-31,83.2 µM (inactive)
same,GI50,BT-549,> 100 µM (inactive)
same,GI50,MDA-MB-435,30.4 µM (inactive)
same,GI50,MDA-N,41.4 µM (inactive)
same,GI50,EKVX,51.4 µM (inactive)
same,GI50,M14,37.9 µM (inactive)
same,GI50,K562,44.3 µM (inactive)
same,GI50,CAKI-1,> 100 µM (inactive)
same,GI50,MDA-MB-231,> 100 µM (inactive)
Cc1cc(C)n(C(=C(C(Cl)=C(Cl)Cl)[N+](=O)[O-])n2nc(C)cc2C)n1,GI50,MOLT-4,2.37 µM (inactive)
same,GI50,HCT-15,3.2 µM
same,GI50,OVCAR-5,7.93 µM (inactive)
same,GI50,NCI-H226,5.66 µM (inactive)
same,GI50,NCI-H460,3.52 µM (inactive)
same,GI50,A549,3.5 µM (inactive)
same,GI50,HOP-62,5.04 µM (inactive)
same,GI50,NCI/ADR-RES,3.78 µM (inactive)
same,GI50,DU-145,4.12 µM (inactive)
same,GI50,SK-MEL-2,1.37 µM (inactive)
same,GI50,HOP-92,2.72 µM (inactive)
same,GI50,Malme-3M,2.98 µM (inactive)
same,GI50,A498,2.86 µM (inactive)
same,GI50,SK-MEL-28,6.17 µM (inactive)
same,GI50,SF-268,4.23 µM (inactive)
same,GI50,SNB-19,4.81 µM (inactive)
same,GI50,Hs-578T,4.66 µM (inactive)
same,GI50,HCT-116,3.65 µM (inactive)
same,GI50,SNB-75,6.25 µM (inactive)
same,GI50,SK-MEL-5,2.13 µM (inactive)
same,GI50,OVCAR-4,3.59 µM (inactive)
same,GI50,UACC-62,4.06 µM (inactive)
same,GI50,MCF7,2.55 µM (inactive)
same,GI50,T47D,4.05 µM (inactive)
same,GI50,OVCAR-8,3.06 µM (inactive)
same,GI50,IGROV-1,4.03 µM (inactive)
same,GI50,NCI-H522,2.73 µM (inactive)
same,GI50,U-251,3.44 µM (inactive)
same,GI50,RXF 393,3.79 µM (inactive)
same,GI50,UACC-257,3.24 µM (inactive)
same,GI50,CCRF-CEM,2.16 µM (inactive)
same,GI50,KM12,3.48 µM (inactive)
same,GI50,OVCAR-3,3.08 µM (inactive)
same,GI50,HCC 2998,3.19 µM (inactive)
same,GI50,SW-620,3.7 µM (inactive)
same,GI50,ACHN,3.21 µM (inactive)
same,GI50,HT-29,3.5 µM (inactive)
same,GI50,COLO 205,2.08 µM (inactive)
same,GI50,SF-295,3.85 µM (inactive)
same,GI50,TK-10,3.39 µM (inactive)
same,GI50,PC-3,4.43 µM (inactive)
same,GI50,NCI-H23,3.23 µM (inactive)
same,GI50,SK-OV-3,3.29 µM (inactive)
same,GI50,LOX IMVI,2.1 µM (inactive)
same,GI50,SN12C,3.98 µM (inactive)
same,GI50,UO-31,3.18 µM (inactive)
same,GI50,BT-549,4.56 µM (inactive)
same,GI50,MDA-MB-435,2.19 µM (inactive)
same,GI50,MDA-N,4.06 µM (inactive)
same,GI50,EKVX,2.58 µM (inactive)
same,GI50,SF-539,4.59 µM (inactive)
same,GI50,M14,3.8 µM (inactive)
same,GI50,K562,2.02 µM (inactive)
same,GI50,HL-60,1.91 µM (inactive)
same,GI50,CAKI-1,3.23 µM (inactive)
same,GI50,MDA-MB-231,7.41 µM (inactive)
